Experimental data from patent US10760110B2, “Antibiotic testing and screening system” (priority 2017, dated 2020).
Read-outs that look alike come from different tables or passages of the source.

Tests used:
[1] = tested on: K. pneumoniae NVT1001 and its ΔompK35/36 and/or ΔramR mutants; test: Etest MIC, OmpK35/36 loss and AcrAB-TolC overexpression (ΔramR) strains (Table 6); type: cell-based, Klebsiella pneumoniae; settings: Klebsiella pneumoniae
How it was run: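 First, Etest determined each antibiotic's MIC, and intermediate results were adjusted upward to the next doubling dilution. Next, ceftazidime and cefotaxime were titrated in broth according to CLSI recommendations. Finally, results were interpreted with CLSI 2017 breakpoints, substituting CLSI 2015 for cephalothin and EUCAST 2017 for moxifloxacin.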

[2] = tested on: K. pneumoniae NVT1001 strains with carbapenemase plasmids; test: Etest MIC of β-lactams, OmpK35/36 loss, ΔramR and/or carbapenemase (Table 9); type: cell-based, Klebsiella pneumoniae; settings: for MIC: Klebsiella pneumoniae
How it was run: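 Cloned resistance genes in pACYC177 or pACYC184 were electroporated into K. pneumoniae NVT1001. MICs were determined by Etest and rounded up to the next two-fold value. Ceftazidime and cefotaxime against the blaOXA-48 construct were also tested by CLSI broth microdilution, with breakpoints from CLSI 2017 (cephalothin CLSI 2015, moxifloxacin EUCAST 2017).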

[3] = tested on: K. pneumoniae NVT1001 ΔramRΔompK35/36 mutant and its revertants; test: Etest MIC, ΔramRΔompK35/36 mutant and its revertants (Table 7); type: cell-based; settings: Klebsiella pneumoniae
[4] = ΔramRΔ35/36, ΔramRΔompK35/36 mutant
[5] = IMP-8 on pACYC177, WT (NVT1001), read-out: MIC
[6] = IMP-8 on pACYC177, Δ35 (ΔompK35 mutant)
[7] = IMP-8 on pACYC177, Δ35/36 (ΔompK35/36 mutant)
[8] = IMP-8 on pACYC177, Δ36 (ΔompK36 mutant)
[9] = IMP-8 on pACYC177, ΔramR mutant
[10] = IMP-8 on pACYC177, ΔramRΔ35 (ΔramRΔompK35 mutant)
[11] = IMP-8 on pACYC177, ΔramRΔ35/36 (ΔramRΔompK35/36 mutant)
[12] = IMP-8 on pACYC177, ΔramRΔ36 (ΔramRΔompK36 mutant)
[13] = KPC-2 on pACYC177, WT (NVT1001), read-out: MIC
[14] = KPC-2 on pACYC177, Δ35 (ΔompK35 mutant)
[15] = KPC-2 on pACYC177, Δ35/36 (ΔompK35/36 mutant)
[16] = KPC-2 on pACYC177, Δ36 (ΔompK36 mutant)
[17] = KPC-2 on pACYC177, ΔramR mutant
[18] = KPC-2 on pACYC177, ΔramRΔ35 (ΔramRΔompK35 mutant)
[19] = KPC-2 on pACYC177, ΔramRΔ35/36 (ΔramRΔompK35/36 mutant)
[20] = KPC-2 on pACYC177, ΔramRΔ36 (ΔramRΔompK36 mutant)
[21] = KPC-3 on pACYC177, WT (NVT1001), read-out: MIC
[22] = KPC-3 on pACYC177, Δ35 (ΔompK35 mutant)
[23] = KPC-3 on pACYC177, Δ35/36 (ΔompK35/36 mutant)
[24] = KPC-3 on pACYC177, Δ36 (ΔompK36 mutant)
[25] = KPC-3 on pACYC177, ΔramR mutant
[26] = KPC-3 on pACYC177, ΔramRΔ35 (ΔramRΔompK35 mutant)
[27] = KPC-3 on pACYC177, ΔramRΔ35/36 (ΔramRΔompK35/36 mutant)
[28] = KPC-3 on pACYC177, ΔramRΔ36 (ΔramRΔompK36 mutant)
[29] = NDM-1 on pACYC177, WT (NVT1001), read-out: MIC
[30] = NDM-1 on pACYC177, Δ35 (ΔompK35 mutant)
[31] = NDM-1 on pACYC177, Δ35/36 (ΔompK35/36 mutant)
[32] = NDM-1 on pACYC177, Δ36 (ΔompK36 mutant)
[33] = NDM-1 on pACYC177, ΔramR mutant
[34] = NDM-1 on pACYC177, ΔramRΔ35 (ΔramRΔompK35 mutant)
[35] = NDM-1 on pACYC177, ΔramRΔ35/36 (ΔramRΔompK35/36 mutant)
[36] = NDM-1 on pACYC177, ΔramRΔ36 (ΔramRΔompK36 mutant)
[37] = OXA-48 on pACYC177, WT (NVT1001), read-out: MIC
[38] = OXA-48 on pACYC177, Δ35 (ΔompK35 mutant)
[39] = OXA-48 on pACYC177, Δ35/36 (ΔompK35/36 mutant)
[40] = OXA-48 on pACYC177, Δ36 (ΔompK36 mutant)
[41] = OXA-48 on pACYC177, ΔramR mutant
[42] = OXA-48 on pACYC177, ΔramRΔ35 (ΔramRΔompK35 mutant)
[43] = OXA-48 on pACYC177, ΔramRΔ35/36 (ΔramRΔompK35/36 mutant)
[44] = OXA-48 on pACYC177, ΔramRΔ36 (ΔramRΔompK36 mutant)
[45] = VIM-1 on pACYC177, WT (NVT1001), read-out: MIC
[46] = VIM-1 on pACYC177, Δ35 (ΔompK35 mutant)
[47] = VIM-1 on pACYC177, Δ35/36 (ΔompK35/36 mutant)
[48] = VIM-1 on pACYC177, Δ36 (ΔompK36 mutant)
[49] = VIM-1 on pACYC177, ΔramR mutant
[50] = VIM-1 on pACYC177, ΔramRΔ35 (ΔramRΔompK35 mutant)
[51] = VIM-1 on pACYC177, ΔramRΔ35/36 (ΔramRΔompK35/36 mutant)
[52] = VIM-1 on pACYC177, ΔramRΔ36 (ΔramRΔompK36 mutant)
[53] = no supplemental plasmid, WT (NVT1001), read-out: MIC
[54] = no supplemental plasmid, Δ35 (ΔompK35 mutant)
[55] = no supplemental plasmid, Δ35/36 (ΔompK35/36 mutant)
[56] = no supplemental plasmid, Δ36 (ΔompK36 mutant)
[57] = no supplemental plasmid, ΔramR mutant
[58] = no supplemental plasmid, ΔramRΔ35 (ΔramRΔompK35 mutant)
[59] = no supplemental plasmid, ΔramRΔ35/36 (ΔramRΔompK35/36 mutant)
[60] = no supplemental plasmid, ΔramRΔ36 (ΔramRΔompK36 mutant)
[61] = ΔramRΔompK35/36::ompK35/36 revertant
[62] = ΔramRΔompK35/36::ompK35 revertant
[63] = ΔramRΔompK35/36::ompK36 revertant
[64] = ΔramRΔompK35/36::ramR revertant
[65] = ΔramRΔompK35/36::ramR::ompK35/36 revertant
[66] = ΔramRΔompK35/36::ramR::ompK35 revertant
[67] = ΔramRΔompK35/36::ramR::ompK36 revertant

CO[C@@]1(NC(=O)Cc2cccs2)C(=O)N2C(C(=O)O)=C(COC(N)=O)CS[C@@H]21 [Cefoxitin]
16 µg/mL: MIC ([1]; Δ36, ΔompK36 mutant) | MIC [2, 13] | MIC [2, 21] | MIC [2, 40] | MIC [2, 56] | MIC [3, 66]
64 µg/mL: MIC ([1]; ΔramR mutant) | MIC ([1]; ΔramRΔ35, ΔramRΔompK35 mutant) | MIC [2, 16] | MIC [2, 24] | MIC [2, 42] | MIC [2, 57] | MIC [2, 58] | MIC [3, 61] | MIC [3, 63] | MIC [3, 64]
8 µg/mL: MIC [2, 38] | MIC [3, 67]
> 256 µg/mL: MIC [1, 4] | MIC ([1]; ΔramRΔ36, ΔramRΔompK36 mutant) | MIC [2, 5] | MIC [2, 6] | MIC [2, 7] | MIC [2, 8] | MIC [2, 9] | MIC [2, 10] | MIC [2, 11] | MIC [2, 12] | MIC [2, 15] | MIC [2, 19] | MIC [2, 20] | MIC [2, 23] | MIC [2, 27] | MIC [2, 28] | MIC [2, 29] | MIC [2, 30] | MIC [2, 31] | MIC [2, 32] | MIC [2, 33] | MIC [2, 34] | MIC [2, 35] | MIC [2, 36] | MIC [2, 43] | MIC [2, 44] | MIC [2, 45] | MIC [2, 46] | MIC [2, 47] | MIC [2, 48] | MIC [2, 49] | MIC [2, 50] | MIC [2, 51] | MIC [2, 52] | MIC [2, 59] | MIC [2, 60] | MIC [3, 62] | MIC ([3]; ΔramRΔompK35/36 mutant)
32 µg/mL: MIC [2, 14] | MIC [2, 22]
intermediate resistance: resistance category ([2]; production of KPC-2 or KPC-3 alone)
4 µg/mL: MIC ([1]; WT, NVT1001, read-out: MIC) | MIC ([1]; Δ35, ΔompK35 mutant) | MIC [2, 37] | MIC [2, 53] | MIC [2, 54] | MIC [3, 65]
128 µg/mL: MIC ([1]; Δ35/36, ΔompK35/36 mutant) | MIC [2, 17] | MIC [2, 18] | MIC [2, 25] | MIC [2, 26] | MIC [2, 39] | MIC [2, 41] | MIC [2, 55]

CC(C)(O/N=C(\C(=O)N[C@@H]1C(=O)N2C(C(=O)[O-])=C(C[n+]3ccccc3)CS[C@H]12)c1csc(N)n1)C(=O)O [Ceftazidime]
16 µg/mL: MIC [2, 13]
64 µg/mL: MIC [2, 14]
0.25 µg/mL: MIC ([1]; WT, NVT1001, read-out: MIC) | MIC [2, 53] | MIC [3, 65] | MIC [3, 66]
32 µg/mL: MIC [2, 16]
2 µg/mL: MIC ([1]; ΔramR mutant) | MIC ([1]; ΔramRΔ35, ΔramRΔompK35 mutant) | MIC [1, 4] | MIC ([1]; ΔramRΔ36, ΔramRΔompK36 mutant) | MIC [2, 39] | MIC [2, 41] | MIC [2, 42] | MIC [2, 43] | MIC [2, 44] | MIC [2, 57] | MIC [2, 58] | MIC [2, 59] | MIC [2, 60] | MIC [3, 61] | MIC [3, 62] | MIC [3, 63] | MIC ([3]; ΔramRΔompK35/36 mutant)
128 µg/mL: MIC [2, 17] | MIC [2, 18] | MIC [2, 19] | MIC [2, 20] | MIC [2, 21] | MIC [2, 24]
0.5 µg/mL: MIC ([1]; Δ35, ΔompK35 mutant) | MIC ([1]; Δ36, ΔompK36 mutant) | MIC [2, 37] | MIC [2, 40] | MIC [2, 54] | MIC [2, 56]
> 256 µg/mL: MIC [2, 5] | MIC [2, 6] | MIC [2, 7] | MIC [2, 8] | MIC [2, 9] | MIC [2, 10] | MIC [2, 11] | MIC [2, 12] | MIC [2, 22] | MIC [2, 23] | MIC [2, 25] | MIC [2, 26] | MIC [2, 27] | MIC [2, 28] | MIC [2, 29] | MIC [2, 30] | MIC [2, 31] | MIC [2, 32] | MIC [2, 33] | MIC [2, 34] | MIC [2, 35] | MIC [2, 36] | MIC [2, 45] | MIC [2, 46] | MIC [2, 47] | MIC [2, 48] | MIC [2, 49] | MIC [2, 50] | MIC [2, 51] | MIC [2, 52]
1 µg/mL: MIC ([1]; Δ35/36, ΔompK35/36 mutant) | MIC [2, 38] | MIC [2, 55] | MIC [3, 64] | MIC [3, 67]
256 µg/mL: MIC [2, 15]
